Measurements taken from the NIST ThermoML archive (doi:10.1021/je049572f).

Experiment: xn = mol fraction of the nth substance listed
Settings: 101.33 kPa, Liquid

C=Cc1ccccc1 [styrene] + CCCCCCCC
Settings | mass density [kg/m3] | viscosity [mPa·s]
293.15 K, x1 = 0.1085 | 719.52 | 0.537
293.15 K, x1 = 0.2151 | 736.18 | 0.537
293.15 K, x1 = 0.3202 | 753.7 | 0.541
293.15 K, x1 = 0.4223 | 772.01 | 0.551
293.15 K, x1 = 0.523 | 791.51 | 0.565
293.15 K, x1 = 0.622 | 812.07 | 0.593
293.15 K, x1 = 0.7189 | 833.64 | 0.619
293.15 K, x1 = 0.8145 | 856.59 | 0.649
293.15 K, x1 = 0.9081 | 880.84 | 0.694
293.15 K, x1 = 1 | 906.29 | 0.749
298.15 K, x1 = 0.1085 | 715.45 | 0.502
298.15 K, x1 = 0.2151 | 732.06 | 0.508
298.15 K, x1 = 0.3202 | 749.53 | 0.51
298.15 K, x1 = 0.4223 | 767.81 | 0.518
298.15 K, x1 = 0.523 | 787.27 | 0.533
298.15 K, x1 = 0.622 | 807.78 | 0.56
298.15 K, x1 = 0.7189 | 829.3 | 0.576
298.15 K, x1 = 0.8145 | 852.22 | 0.608
298.15 K, x1 = 0.9081 | 876.43 | 0.647
298.15 K, x1 = 1 | 901.86 | 0.699
303.15 K, x1 = 0.1085 | 711.38 | 0.475
303.15 K, x1 = 0.2151 | 727.94 | 0.477
303.15 K, x1 = 0.3202 | 745.38 | 0.48
303.15 K, x1 = 0.4223 | 763.63 | 0.489
303.15 K, x1 = 0.523 | 783.03 | 0.503
303.15 K, x1 = 0.622 | 803.5 | 0.527
303.15 K, x1 = 0.7189 | 824.98 | 0.544
303.15 K, x1 = 0.8145 | 847.87 | 0.571
303.15 K, x1 = 0.9081 | 872.03 | 0.609
303.15 K, x1 = 1 | 897.45 | 0.654
313.15 K, x1 = 0.1085 | 703.13 | 0.423
313.15 K, x1 = 0.2151 | 719.6 | 0.427
313.15 K, x1 = 0.3202 | 737 | 0.431
313.15 K, x1 = 0.4223 | 755.16 | 0.439
313.15 K, x1 = 0.523 | 774.46 | 0.451
313.15 K, x1 = 0.622 | 794.86 | 0.48
313.15 K, x1 = 0.7189 | 816.28 | 0.486
313.15 K, x1 = 0.8145 | 839.09 | 0.511
313.15 K, x1 = 0.9081 | 863.15 | 0.541
313.15 K, x1 = 1 | 888.53 | 0.577
323.15 K, x1 = 0.1085 | 694.84 | 0.381
323.15 K, x1 = 0.2151 | 711.23 | 0.385
323.15 K, x1 = 0.3202 | 728.58 | 0.388
323.15 K, x1 = 0.4223 | 746.66 | 0.396
323.15 K, x1 = 0.523 | 765.88 | 0.406
323.15 K, x1 = 0.622 | 786.22 | 0.427
323.15 K, x1 = 0.7189 | 807.56 | 0.437
323.15 K, x1 = 0.8145 | 830.31 | 0.46
323.15 K, x1 = 0.9081 | 854.31 | 0.484
323.15 K, x1 = 1 | 879.62 | 0.513
333.15 K, x1 = 0.1085 | 686.43 | 0.351
333.15 K, x1 = 0.2151 | 702.74 | 0.351
333.15 K, x1 = 0.3202 | 720.06 | 0.352
333.15 K, x1 = 0.4223 | 738.07 | 0.359
333.15 K, x1 = 0.523 | 757.21 | 0.368
333.15 K, x1 = 0.622 | 777.49 | 0.387
333.15 K, x1 = 0.7189 | 798.77 | 0.395
333.15 K, x1 = 0.8145 | 821.46 | 0.413
333.15 K, x1 = 0.9081 | 845.37 | 0.438
333.15 K, x1 = 1 | 870.64 | 0.462
343.15 K, x1 = 0.1085 | 677.99 | 0.321
343.15 K, x1 = 0.2151 | 694.24 | 0.325
343.15 K, x1 = 0.3202 | 711.51 | 0.322
343.15 K, x1 = 0.4223 | 729.46 | 0.328
343.15 K, x1 = 0.523 | 748.55 | 0.337
343.15 K, x1 = 0.622 | 768.75 | 0.355
343.15 K, x1 = 0.7189 | 789.97 | 0.362
343.15 K, x1 = 0.8145 | 812.63 | 0.376
343.15 K, x1 = 0.9081 | 836.5 | 0.398
343.15 K, x1 = 1 | 861.72 | 0.419
353.15 K, x1 = 0.1085 | 669.39 | 0.293
353.15 K, x1 = 0.2151 | 685.6 | 0.295
353.15 K, x1 = 0.3202 | 702.81 | 0.295
353.15 K, x1 = 0.4223 | 720.71 | 0.301
353.15 K, x1 = 0.523 | 739.76 | 0.308
353.15 K, x1 = 0.622 | 759.93 | 0.322
353.15 K, x1 = 0.7189 | 781.11 | 0.333
353.15 K, x1 = 0.8145 | 803.68 | 0.349
353.15 K, x1 = 0.9081 | 827.51 | 0.362
353.15 K, x1 = 1 | 852.68 | 0.381
363.15 K, x1 = 0.1085 | 660.98 | 0.27
363.15 K, x1 = 0.2151 | 677.15 | 0.268
363.15 K, x1 = 0.3202 | 694.32 | 0.273
363.15 K, x1 = 0.4223 | 712.19 | 0.277
363.15 K, x1 = 0.523 | 731.2 | 0.285
363.15 K, x1 = 0.622 | 751.34 | 0.294
363.15 K, x1 = 0.7189 | 772.48 | 0.304
363.15 K, x1 = 0.8145 | 795.04 | 0.318
363.15 K, x1 = 0.9081 | 818.82 | 0.333
363.15 K, x1 = 1 | 843.99 | 0.349
